Results: ChEMBL document CHEMBL5223164 (ACS Med Chem Lett, 2023)

What was measured:
Cytochrome P450 2D6 [1] = molecular target: T1, Cytochrome P450 2D6 (Homo sapiens, UniProt P10635); assay: Inhibition of human CYP2D6 expressed in insect cell microsomes in presence of NADP+ by fluorescence based analysis
Cytochrome P450 2C19 [2] = molecular target: T2, Cytochrome P450 2C19 (Homo sapiens, UniProt P33261); assay: Inhibition of human CYP2C19 expressed in insect cell microsomes in presence of NADP+ by fluorescence based analysis
T2 sequence (P33261 whole entry): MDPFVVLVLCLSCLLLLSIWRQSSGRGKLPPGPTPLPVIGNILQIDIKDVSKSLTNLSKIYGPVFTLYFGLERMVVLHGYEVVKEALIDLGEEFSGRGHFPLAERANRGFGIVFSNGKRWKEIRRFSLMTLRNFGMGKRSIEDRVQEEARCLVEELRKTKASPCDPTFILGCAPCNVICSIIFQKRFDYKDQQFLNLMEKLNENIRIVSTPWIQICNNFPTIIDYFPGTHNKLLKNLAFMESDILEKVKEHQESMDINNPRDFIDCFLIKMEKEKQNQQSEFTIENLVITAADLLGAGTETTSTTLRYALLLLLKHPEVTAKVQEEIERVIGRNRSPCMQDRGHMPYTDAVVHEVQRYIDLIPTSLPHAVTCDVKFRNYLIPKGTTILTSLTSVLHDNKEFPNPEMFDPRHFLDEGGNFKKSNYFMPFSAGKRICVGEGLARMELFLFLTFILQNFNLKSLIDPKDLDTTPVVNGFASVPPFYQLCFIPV

Cytochrome P450 2C19 [3] = molecular target: T2, Cytochrome P450 2C19; assay: Inhibition of human CYP2C19 expressed in insect cell microsomes at 10 uM in presence of NADP+ by fluorescence based analysis; type: ADME, Microsome
Cytochrome P450 3A4 [4] = molecular target: T3, Cytochrome P450 3A4 (Homo sapiens, UniProt P08684); assay: Inhibition of human CYP3A4 expressed in insect cell microsomes at 10 uM in presence of NADP+ by fluorescence based analysis; type: ADME, Microsome
T3 sequence (P08684 whole entry): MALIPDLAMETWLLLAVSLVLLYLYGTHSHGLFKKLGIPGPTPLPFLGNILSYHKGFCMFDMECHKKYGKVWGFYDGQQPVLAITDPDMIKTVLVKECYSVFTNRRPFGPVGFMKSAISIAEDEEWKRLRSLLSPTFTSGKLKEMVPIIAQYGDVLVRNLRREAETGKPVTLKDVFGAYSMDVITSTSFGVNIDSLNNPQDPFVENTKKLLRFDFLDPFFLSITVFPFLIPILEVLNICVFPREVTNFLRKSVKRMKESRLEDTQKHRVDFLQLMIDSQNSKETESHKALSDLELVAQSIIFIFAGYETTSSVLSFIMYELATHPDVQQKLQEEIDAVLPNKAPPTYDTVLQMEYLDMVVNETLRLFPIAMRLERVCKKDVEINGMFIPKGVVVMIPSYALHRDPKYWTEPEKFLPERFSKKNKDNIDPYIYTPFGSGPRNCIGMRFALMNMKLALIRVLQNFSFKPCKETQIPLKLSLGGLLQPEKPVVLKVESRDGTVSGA

Cytochrome P450 2D6 [5] = molecular target: T1, Cytochrome P450 2D6; assay: Inhibition of human CYP2D6 expressed in insect cell microsomes at 10 uM in presence of NADP+ by fluorescence based analysis; type: ADME, Microsome
[6] = molecular target: Somatostatin receptor type 5 (Homo sapiens, UniProt P35346); assay: Agonist activity at human SST5 receptor expressed in CHO-K1 cells assessed as inhibition of NKH477-induced intracellular cAMP accumulation incubated for 20 mins by HTRF assay; type: cell-based
Sequence of Somatostatin receptor type 5 (P35346 whole entry): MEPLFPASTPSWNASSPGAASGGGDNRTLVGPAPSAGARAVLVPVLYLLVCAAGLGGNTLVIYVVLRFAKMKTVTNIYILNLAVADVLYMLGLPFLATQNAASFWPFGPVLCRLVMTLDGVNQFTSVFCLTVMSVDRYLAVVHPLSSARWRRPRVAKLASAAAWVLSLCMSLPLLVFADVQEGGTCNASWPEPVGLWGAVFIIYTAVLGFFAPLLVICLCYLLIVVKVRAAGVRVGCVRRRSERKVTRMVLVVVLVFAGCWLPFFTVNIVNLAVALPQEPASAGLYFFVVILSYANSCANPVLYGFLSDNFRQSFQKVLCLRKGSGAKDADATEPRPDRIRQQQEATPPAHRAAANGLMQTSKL

Cytochrome P450 2C9 [7] = molecular target: T4, Cytochrome P450 2C9 (Homo sapiens, UniProt P11712); assay: Inhibition of human CYP2C9 expressed in insect cell microsomes in presence of NADP+ by fluorescence based analysis
T4 sequence (P11712 whole entry): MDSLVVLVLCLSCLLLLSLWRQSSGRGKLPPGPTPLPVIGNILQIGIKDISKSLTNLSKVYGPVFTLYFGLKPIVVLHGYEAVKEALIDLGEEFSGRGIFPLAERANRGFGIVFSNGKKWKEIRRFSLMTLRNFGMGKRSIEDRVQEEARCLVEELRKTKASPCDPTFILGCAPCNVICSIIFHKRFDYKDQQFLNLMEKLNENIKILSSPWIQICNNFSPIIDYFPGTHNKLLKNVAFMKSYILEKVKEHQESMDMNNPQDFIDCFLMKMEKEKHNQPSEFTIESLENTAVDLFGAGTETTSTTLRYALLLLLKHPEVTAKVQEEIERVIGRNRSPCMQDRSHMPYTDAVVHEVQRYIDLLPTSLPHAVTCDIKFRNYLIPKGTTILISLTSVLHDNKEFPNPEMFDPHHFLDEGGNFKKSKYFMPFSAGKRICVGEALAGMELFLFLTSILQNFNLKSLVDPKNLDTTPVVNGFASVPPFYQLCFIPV

[8] = molecular target: Voltage-gated inwardly rectifying potassium channel KCNH2 (Homo sapiens, UniProt Q12809); assay: Inhibition of hERG by fluorescence polarization assay; type: toxicity
Sequence of Voltage-gated inwardly rectifying potassium channel KCNH2 (Q12809 whole entry): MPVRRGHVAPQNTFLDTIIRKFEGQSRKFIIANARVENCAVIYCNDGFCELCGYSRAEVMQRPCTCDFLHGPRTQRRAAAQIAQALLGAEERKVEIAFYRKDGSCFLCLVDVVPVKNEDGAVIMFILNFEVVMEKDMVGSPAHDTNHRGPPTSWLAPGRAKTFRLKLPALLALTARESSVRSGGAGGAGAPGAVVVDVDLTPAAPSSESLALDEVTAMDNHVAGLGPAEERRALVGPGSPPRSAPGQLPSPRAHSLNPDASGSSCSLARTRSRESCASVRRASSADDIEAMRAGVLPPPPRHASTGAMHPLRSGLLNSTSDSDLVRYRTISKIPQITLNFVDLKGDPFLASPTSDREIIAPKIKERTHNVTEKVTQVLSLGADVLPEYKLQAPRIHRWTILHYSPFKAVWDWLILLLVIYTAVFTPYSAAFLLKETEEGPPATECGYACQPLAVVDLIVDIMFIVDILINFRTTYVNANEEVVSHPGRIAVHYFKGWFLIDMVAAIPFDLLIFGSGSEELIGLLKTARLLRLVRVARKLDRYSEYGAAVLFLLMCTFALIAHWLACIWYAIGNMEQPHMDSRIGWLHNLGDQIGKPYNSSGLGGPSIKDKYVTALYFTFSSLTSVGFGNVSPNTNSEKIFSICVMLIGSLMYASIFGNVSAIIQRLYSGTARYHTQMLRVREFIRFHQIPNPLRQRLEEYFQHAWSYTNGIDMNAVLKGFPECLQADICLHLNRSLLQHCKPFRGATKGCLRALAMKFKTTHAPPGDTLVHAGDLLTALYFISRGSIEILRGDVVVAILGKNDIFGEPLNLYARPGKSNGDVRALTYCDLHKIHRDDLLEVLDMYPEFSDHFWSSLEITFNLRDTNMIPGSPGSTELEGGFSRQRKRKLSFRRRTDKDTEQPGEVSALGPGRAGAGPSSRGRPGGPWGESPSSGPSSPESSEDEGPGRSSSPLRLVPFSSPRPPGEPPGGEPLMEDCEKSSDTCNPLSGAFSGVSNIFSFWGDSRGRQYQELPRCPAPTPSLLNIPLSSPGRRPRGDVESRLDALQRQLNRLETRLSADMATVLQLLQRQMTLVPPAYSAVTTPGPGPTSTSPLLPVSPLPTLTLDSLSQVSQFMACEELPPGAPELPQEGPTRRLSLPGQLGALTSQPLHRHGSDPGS

[9] = molecular target: Somatostatin receptor type 2 (Homo sapiens, UniProt P30874)
Sequence of Somatostatin receptor type 2 (Homo sapiens, UniProt P30874) (P30874 whole entry): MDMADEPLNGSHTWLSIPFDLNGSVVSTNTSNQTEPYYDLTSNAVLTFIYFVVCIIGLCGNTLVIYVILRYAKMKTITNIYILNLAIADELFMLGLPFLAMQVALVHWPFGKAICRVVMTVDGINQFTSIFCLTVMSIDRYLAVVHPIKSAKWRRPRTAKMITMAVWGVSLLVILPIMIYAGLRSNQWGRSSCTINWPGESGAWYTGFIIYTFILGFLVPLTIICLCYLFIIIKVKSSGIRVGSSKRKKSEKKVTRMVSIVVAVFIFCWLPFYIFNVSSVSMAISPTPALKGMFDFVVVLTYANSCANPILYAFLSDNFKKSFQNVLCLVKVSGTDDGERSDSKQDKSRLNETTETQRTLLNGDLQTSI
Description: Agonist activity at human SST2 receptor expressed in CHO-K1 cells assessed as inhibition of NKH477-induced intracellular cAMP accumulation incubated for 20 mins by HTRF assay

[10] = molecular target: Somatostatin receptor type 4 (Homo sapiens, UniProt P31391); assay: Agonist activity at human SST4 receptor expressed in CHO-K1 cells assessed as inhibition of NKH477-induced intracellular cAMP accumulation incubated for 20 mins by HTRF assay; type: cell-based
Sequence of Somatostatin receptor type 4 (P31391 whole entry): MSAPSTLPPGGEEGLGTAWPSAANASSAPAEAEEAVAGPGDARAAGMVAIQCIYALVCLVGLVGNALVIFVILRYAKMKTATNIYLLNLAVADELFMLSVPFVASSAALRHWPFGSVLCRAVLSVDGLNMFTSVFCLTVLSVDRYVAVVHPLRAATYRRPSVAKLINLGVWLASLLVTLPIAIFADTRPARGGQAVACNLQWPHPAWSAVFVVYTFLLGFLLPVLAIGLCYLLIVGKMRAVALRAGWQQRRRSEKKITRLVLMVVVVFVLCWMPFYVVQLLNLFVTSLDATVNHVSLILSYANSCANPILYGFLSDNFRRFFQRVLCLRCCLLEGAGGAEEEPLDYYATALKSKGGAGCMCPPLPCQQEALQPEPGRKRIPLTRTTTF

Cytochrome P450 2C9 [11] = molecular target: T4, Cytochrome P450 2C9; assay: Inhibition of human CYP2C9 expressed in insect cell microsomes at 10 uM in presence of NADP+ by fluorescence based analysis; type: ADME, Microsome
Cytochrome P450 3A4 [12] = molecular target: T3, Cytochrome P450 3A4; assay: Inhibition of human CYP3A4 expressed in insect cell microsomes in presence of NADP+ by fluorescence based analysis
[13] = molecular target: Somatostatin receptor type 1 (Homo sapiens, UniProt P30872); assay: Agonist activity at human SST1 receptor expressed in CHO-K1 cells assessed as inhibition of NKH477-induced intracellular cAMP accumulation incubated for 20 mins by HTRF assay; type: cell-based
Sequence of Somatostatin receptor type 1 (P30872 whole entry): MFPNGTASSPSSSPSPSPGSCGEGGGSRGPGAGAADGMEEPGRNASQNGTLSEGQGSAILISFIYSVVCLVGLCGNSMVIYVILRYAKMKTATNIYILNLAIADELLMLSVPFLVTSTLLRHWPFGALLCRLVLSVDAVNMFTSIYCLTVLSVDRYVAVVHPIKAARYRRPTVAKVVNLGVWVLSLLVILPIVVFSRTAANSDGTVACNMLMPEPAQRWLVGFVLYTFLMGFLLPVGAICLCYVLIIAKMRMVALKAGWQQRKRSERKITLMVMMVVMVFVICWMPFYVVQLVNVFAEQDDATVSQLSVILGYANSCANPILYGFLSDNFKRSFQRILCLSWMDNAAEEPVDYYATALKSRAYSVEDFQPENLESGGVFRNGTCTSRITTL

in vivo [14] = conditions: beagle, dog, po, 10 mg/kg
[15] = Half life in Sprague-Dawley rat at 2.5 mg/kg, iv; conditions: in vivo
[16] = molecular target: Somatostatin receptor type 3 (Homo sapiens, UniProt P32745); assay: Agonist activity at human SST3 receptor expressed in CHO-K1 cells assessed as inhibition of NKH477-induced intracellular cAMP accumulation incubated for 20 mins by HTRF assay; type: cell-based
[17] = Volume of distribution at steady state in Sprague-Dawley rat at 2.5 mg/kg, iv; conditions: in vivo
[18] = molecular target: Somatostatin receptor type 2 (Rattus norvegicus, UniProt P30680); assay: Agonist activity at rat SST2 receptor
in vivo [19] = conditions: Sprague-Dawley, rat, po, 10 mg/kg
in vivo [20] = conditions: beagle, dog, po, 10 mg/kg; remark: listed apart in the source
[21] = Volume of distribution at steady state in Beagle dog at 2.5 mg/kg, iv; conditions: in vivo
in vivo [22] = conditions: Sprague-Dawley, rat, po, 10 mg/kg; remark: listed apart in the source
[23] = Clearance in Sprague-Dawley rat at 2.5 mg/kg, iv; conditions: in vivo
[24] = Half life in Beagle dog at 2.5 mg/kg, iv; conditions: in vivo
[25] = Clearance in Beagle dog at 2.5 mg/kg, iv; conditions: in vivo
[26] = molecular target: Somatostatin receptor type 2 (Canis lupus familiaris, UniProt Q49LX6); assay: Agonist activity at dog SST2 receptor

T1 sequence (P10635 whole entry): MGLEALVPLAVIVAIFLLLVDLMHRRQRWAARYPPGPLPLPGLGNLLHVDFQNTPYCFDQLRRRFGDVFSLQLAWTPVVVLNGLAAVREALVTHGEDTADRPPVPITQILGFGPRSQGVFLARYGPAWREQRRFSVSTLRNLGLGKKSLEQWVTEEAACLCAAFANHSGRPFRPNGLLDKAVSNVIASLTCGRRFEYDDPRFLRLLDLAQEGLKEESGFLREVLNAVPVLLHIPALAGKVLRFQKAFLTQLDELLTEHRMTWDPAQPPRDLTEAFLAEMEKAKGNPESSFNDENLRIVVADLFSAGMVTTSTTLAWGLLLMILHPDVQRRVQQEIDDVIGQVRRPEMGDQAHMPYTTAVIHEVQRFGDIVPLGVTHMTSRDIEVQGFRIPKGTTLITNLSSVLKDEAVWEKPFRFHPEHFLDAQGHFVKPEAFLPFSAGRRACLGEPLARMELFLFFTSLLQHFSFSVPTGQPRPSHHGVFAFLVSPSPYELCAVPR

SMILES	EC50 [6]	EC50 [9]	EC50 [10]	EC50 [13]	EC50 [16]	IC50 [8]	further results
NC1CCN(c2c(-c3cc(Cl)cc(Cl)c3)cnc3ccccc23)CC1	–	0.14 µM	–	–	–	–	–
N#Cc1cccc(-c2ccc3ncc(-c4cccc(F)c4)c(N4CCC(N)CC4)c3c2)c1O	> 1 µM	–	1 µM	> 1 µM	> 1 µM	> 10 µM	–
NC1CCN(c2c(-c3cc(F)cc(F)c3)cnc3ccc(-c4cccc(O)c4)cc23)CC1	> 1 µM	–	0.0158 µM	> 1 µM	> 1 µM	< 1 µM	–
NC1CCN(c2c(-c3cc(F)cc(F)c3)cnc3ccc(-c4cccc(F)c4O)cc23)CC1	> 1 µM	–	0.0251 µM	> 1 µM	> 1 µM	1 µM	–

Second part, led by results:

EC50 [6]	EC50 [9]	EC50 [10]	EC50 [13]	EC50 [16]	SMILES	IC50 [8]	further results
> 1 µM	0.00034 µM	> 1 µM	> 1 µM	–	N#Cc1cc(F)cc(-c2ccc3ncc(-c4cc(F)cc(F)c4)c(N4CCC(N)CC4)c3c2)c1O	10 µM	IC50 (Cytochrome P450 2D6 [1]): > 10 µM; IC50 (Cytochrome P450 2C19 [2]): 3.98 µM; inhibition (INH) (Cytochrome P450 2C19 [3]): Not Active; inhibition (INH) (Cytochrome P450 3A4 [4]): Not Active; inhibition (INH) (Cytochrome P450 2D6 [5]): Not Active; IC50 (Cytochrome P450 2C9 [7]): 6.31 µM; inhibition (INH) (Cytochrome P450 2C9 [11]): Not Active; IC50 (Cytochrome P450 3A4 [12]): 10 µM
–	0.0014 µM	–	–	–	N#Cc1cccc(-c2ccc3ncc(-c4cc(F)cc(F)c4)c(N4CCC(N)CC4)c3c2)c1	–	–
> 1 µM	–	1 µM	> 1 µM	> 1 µM	N#Cc1cccc(-c2ccc3ncc(-c4cc(F)cc(F)c4)c(N4CCC(N)CC4)c3c2)c1O [PALTUSOTINE]	–	Cmax (in vivo [14]): 1.37 µg/mL; half-life [15]: 2.8 h; IC50 (Cytochrome P450 2D6 [1]): > 10 µM; IC50 (Cytochrome P450 2C19 [2]): 5.01 µM; Vd [17]: 1.5 L/kg; EC50 [18]: 0.0012 µM; inhibition (INH) (Cytochrome P450 2C19 [3]): Not Active; Cmax (in vivo [19]): 0.129 µg/mL; AUC(0-inf) (in vivo [20]): 10.4 µg·h/mL; Vd [21]: 3.5 L/kg; AUC(0-inf) (in vivo [22]): 1.61 µg·h/mL; inhibition (INH) (Cytochrome P450 3A4 [4]): Not Active; inhibition (INH) (Cytochrome P450 2D6 [5]): Not Active; clearance [23]: 0.546 L/h/kg; IC50 (Cytochrome P450 2C9 [7]): 7.94 µM; half-life [24]: 7.5 h; inhibition (INH) (Cytochrome P450 2C9 [11]): Not Active; clearance [25]: 0.564 L/h/kg; EC50 [26]: 0.0066 µM; IC50 (Cytochrome P450 3A4 [12]): > 10 µM
–	0.0034 µM	–	–	–	NC1CCN(c2c(-c3cc(F)cc(F)c3)cnc3ccc(-c4ccccc4O)cc23)CC1	–	–
> 1 µM	–	> 1 µM	> 1 µM	> 1 µM	COc1cc(F)cc(-c2cnc3ccc(-c4cccc(C#N)c4O)cc3c2N2CCC(N)CC2)c1	–	–
> 1 µM	0.00017 µM	> 1 µM	> 1 µM	> 1 µM	Cc1cc(F)cc(-c2cnc3ccc(-c4cccc(C#N)c4O)cc3c2N2CCC(N)CC2)c1	–	–
